We go through twelve compounds from patent US6376521B1, “A3 adenosine receptor antagonists” (The United States of America as represented by the …, priority 1998, dated 2002).

In test [1] the target is T1, A2A adenosine receptors (Rattus norvegicus, UniProt P30543).
T1 construct: from tissue
Particulars: Table 3, cited from earlier work; for Ki: compounds 59, 68, values taken from van Rhee et al. 1996 and Jiang et al. 1997, read-out: rA2A Ki ± S.E.M.

Test [2] has as its target T1, A2A adenosine receptors. The test is described as follows: Displacement of specific [3H]CGS 21680 binding in rat striatal membranes. Particulars: for rA2A displacement of specific binding (class d): Table 2, at 10^−4 M; for Ki: [3H]CGS 21680, rat striatal membranes, n = 3-6, read-out: rA2A Ki ± S.E.M.
The target in another test is T2, A1 adenosine receptors (Rattus norvegicus, UniProt P25099).
T2 construct: from tissue
T2 sequence (P25099 1-326): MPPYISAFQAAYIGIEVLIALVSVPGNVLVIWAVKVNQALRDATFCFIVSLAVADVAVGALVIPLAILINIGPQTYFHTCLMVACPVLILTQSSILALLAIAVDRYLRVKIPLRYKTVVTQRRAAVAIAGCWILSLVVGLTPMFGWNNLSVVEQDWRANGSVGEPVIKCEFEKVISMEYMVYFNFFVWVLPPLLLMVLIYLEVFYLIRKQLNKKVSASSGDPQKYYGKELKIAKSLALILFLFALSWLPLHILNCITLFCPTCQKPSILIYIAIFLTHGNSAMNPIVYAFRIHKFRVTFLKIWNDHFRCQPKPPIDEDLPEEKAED
The test is described as follows: Displacement of specific [3H]R-PIA binding in rat brain membranes. As to conditions: for Ki: Table 2, compounds 33-58, [3H]R-PIA, rat brain membranes, n = 3-5, read-out: rA1 Ki ± S.E.M.

The next test addresses T3, human A3 receptors (Homo sapiens, UniProt P0DMS8).
T3 construct: expressed in transfected cells
T3 sequence (P0DMS8 1-318): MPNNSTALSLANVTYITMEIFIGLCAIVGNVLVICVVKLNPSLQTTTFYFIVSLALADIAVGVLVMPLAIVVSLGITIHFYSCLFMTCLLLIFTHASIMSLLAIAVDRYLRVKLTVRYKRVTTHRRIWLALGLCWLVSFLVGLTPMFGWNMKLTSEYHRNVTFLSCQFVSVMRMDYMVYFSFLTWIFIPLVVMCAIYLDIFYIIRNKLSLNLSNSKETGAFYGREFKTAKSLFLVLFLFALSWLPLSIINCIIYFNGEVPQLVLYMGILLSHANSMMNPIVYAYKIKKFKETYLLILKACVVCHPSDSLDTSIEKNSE
The test is described as follows: Displacement of specific [125I]AB-MECA binding at human A3 receptors expressed in HEK cells, in membranes. Particulars: for Ki: [125I]AB-MECA, HEK cell membranes, n = 3-4, read-out: hA3 Ki ± S.E.M.; for rA1/hA3: ratio of affinities rat A1 vs human A3.

The target of a further test is T4, rat A3 receptors (Rattus norvegicus, UniProt P28647).
T4 construct: expressed in transfected cells
T4 sequence (P28647 1-320): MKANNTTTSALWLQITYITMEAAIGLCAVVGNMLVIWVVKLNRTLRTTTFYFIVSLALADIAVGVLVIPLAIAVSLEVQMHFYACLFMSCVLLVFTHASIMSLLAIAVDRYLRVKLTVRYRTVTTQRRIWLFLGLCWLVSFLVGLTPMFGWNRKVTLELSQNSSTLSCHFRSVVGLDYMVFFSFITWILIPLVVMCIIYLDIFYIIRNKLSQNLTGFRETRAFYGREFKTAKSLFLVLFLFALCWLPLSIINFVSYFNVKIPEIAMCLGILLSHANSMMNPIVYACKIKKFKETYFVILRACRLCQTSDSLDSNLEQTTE
The test can be described thus: Displacement of specific [125I]AB-MECA binding at rat A3 receptors stably expressed in CHO cells. Particulars: for Ki / rA3/hA3 / rA1/rA3: Table 4; for Ki: [125I]AB-MECA, CHO cells, n = 3-5, read-out: rA3 Ki; for rA3/hA3: ratio of affinities at rat vs. human A3 receptors; for rA1/rA3: ratio of affinities rat A1 vs rat A3.

Where two headings read alike, the source gives them in different places.

T1 sequence (P30543 whole entry): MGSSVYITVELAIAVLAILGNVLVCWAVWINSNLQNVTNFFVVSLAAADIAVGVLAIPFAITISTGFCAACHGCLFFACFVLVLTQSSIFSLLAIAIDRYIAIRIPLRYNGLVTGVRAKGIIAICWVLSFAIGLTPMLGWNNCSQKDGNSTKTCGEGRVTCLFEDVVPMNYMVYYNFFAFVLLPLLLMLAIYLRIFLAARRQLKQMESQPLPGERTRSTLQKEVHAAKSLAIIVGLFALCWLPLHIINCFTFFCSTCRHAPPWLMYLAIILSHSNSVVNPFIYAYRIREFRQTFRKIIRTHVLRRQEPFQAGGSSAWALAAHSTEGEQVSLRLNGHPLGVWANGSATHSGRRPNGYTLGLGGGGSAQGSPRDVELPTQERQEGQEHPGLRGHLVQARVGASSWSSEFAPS

In the case of `CCOC(=O)C1=C(C)NC(c2ccccc2)=C(C(=O)OCC)C1C` (stereo not shown) [Compound 59], on A2A adenosine receptors [1], the Ki (commonly a measure of affinity in units of concentration, obtained from inhibition or displacement) was 35900 ± 15300 nM.
With `CCCOC(=O)c1c(-c2ccccc2)nc(CC)c(C(=O)SCC)c1CCC` [Compound 49b, 5-Propyl 2-ethyl-4-propyl-3-(ethylsulfanylcarbonyl)-6-phenylpyridine-5-carboxylate], the “rA2A displacement of specific binding (class d)” value (“rA2A displacement” for short) at A2A adenosine receptors [2] was “d (10^−4) (Displacement of <10% of specific binding at the indicated concentration (M).)”. The Ki worked out at 18200 ± 9000 nM on A1 adenosine receptors; 24.5 ± 4 nM at human A3 receptors (Table 2, compounds 33-58); 113 ± 12 nM on rat A3 receptors. At human A3 receptors (Table 2), the rA1/hA3 is listed as 7400. Besides, the rA3/hA3 at rat A3 receptors came out at 6.0. In addition, on rat A3 receptors, the rA1/rA3 is on record as 140. On rat A3 receptors (both species), the “affinity at rat and human A3 receptors (in words)” value was “high affinity at both species”.
With `CCOC(=O)c1c(-c2ccccc2)nc(C)c(C(=O)SCC)c1CC` [Compound 36, 5-Ethyl 2-methyl-4-ethyl-3-(ethylsulfanylcarbonyl)-6-phenylpyridine-5-carboxylate], the Ki stood at 14900 ± 4100 nM at A2A adenosine receptors [2] (Table 2, compounds 33-58); 14800 ± 3500 nM on A1 adenosine receptors; 42.9 ± 8.8 nM at human A3 receptors (Table 2, compounds 33-58); 1470 ± 340 nM at rat A3 receptors. Moreover, the rA1/hA3 at human A3 receptors (Table 2) turned out to be 340. Also, at rat A3 receptors, the rA3/hA3 is reported as 34. Further, the rA1/rA3 at rat A3 receptors amounted to 10.
Consider `CCSC(=O)c1c(CC)nc(-c2ccccc2)c(C(=O)OCCO)c1CC` [Compound 50, 5-Hydroxylethyl 2,4-diethyl-3-(ethylsulfanylcarbonyl)-6-phenylpyridine-5-carboxylate], for which the Ki on A2A adenosine receptors [2] (Table 2, compounds 33-58) was 10000 ± 3000 nM; on A1 adenosine receptors it was 17400 ± 5290 nM; on human A3 receptors (Table 2, compounds 33-58), 188 ± 61 nM; on rat A3 receptors it was 2870 ± 480 nM. Also, the rA1/hA3 at human A3 receptors (Table 2) is given as 93. The rA3/hA3 on rat A3 receptors came out at 15. Besides, the rA1/rA3 at rat A3 receptors is listed as 6.1.
Consider `CCCc1c(C(=O)SCC)c(C)nc(-c2ccccc2)c1C(=O)OCC` [Compound 38, 5-Ethyl-2-methyl-4-propyl-3-(ethylsulfanylcarbonyl)-6-phenylpyridine-5-carboxylate], for which, at A2A adenosine receptors [2] (Table 2, compounds 33-58), the inhibition constant (Ki) was 7530 ± 2700 nM. For the same compound, the “rA1 percentage of specific binding displaced” value on A1 adenosine receptors (Table 2, at 10^−4 M) is 29 ± 6% (10^−4). Also, the Ki on human A3 receptors (Table 2, compounds 33-58) came out at 194 ± 51 nM. For the same compound, at human A3 receptors (Table 2), the rA1/hA3 is above 700. Moreover, on rat A3 receptors, the inhibition constant (Ki) is 650 ± 70 nM, the rA3/hA3 amounted to 3.4 and the rA1/rA3 is reported as above 100.
Take `CCCCc1nc(-c2ccccc2)c(C(=O)OCC)c(CC)c1C(=O)SCC` [Compound 57, 5-Ethyl 2-butyl-4-ethyl-3-(ethylsulfanylcarbonyl)-6-phenylpyridine-5-carboxylate]: the “rA2A displacement” value at A2A adenosine receptors [2] is listed as “d (10^−4) (Displacement of <10% of specific binding at the indicated concentration (M).)”. The Ki on A1 adenosine receptors amounted to 40300 ± 7400 nM. In addition, at human A3 receptors (Table 2, compounds 33-58), the inhibitory constant (Ki) came out at 35 ± 9.1 nM. The rA1/hA3 at human A3 receptors (Table 2) is recorded as 1200. Further, at rat A3 receptors, the inhibition constant Ki was 2260 ± 50 nM, the rA3/hA3 was 64 and the rA1/rA3 stood at 18.
As for `CCCSC(=O)c1c(CC)nc(-c2ccccc2)c(C(=O)OCC)c1CC` [Compound 53, 5-Ethyl 2,4-diethyl-3-propylsulfanylcarbonyl-6-phenylpyridine-5-carboxylate], the inhibitory constant (Ki) was found to be 15700 ± 4400 nM at A2A adenosine receptors [2] (Table 2, compounds 33-58); 8220 ± 1210 nM at A1 adenosine receptors; 15.9 ± 5.4 nM at human A3 receptors (Table 2, compounds 33-58); 294 ± 6 nM at rat A3 receptors. Also, the rA1/hA3 at human A3 receptors (Table 2) was found to be 520. Also, the rA3/hA3 on rat A3 receptors is listed as 18. On rat A3 receptors, the rA1/rA3 is listed as 28.
Consider `CCOC(=O)C1=C(C)NC(c2ccccc2)=C(C(=O)OCC)C1C=Cc1ccccc1` (stereo not shown) [Compound 68], for which, on A2A adenosine receptors [1], the Ki was 4770 ± 290 nM.
For `CCCc1nc(-c2ccccc2)c(C(=O)OCC)c(CC)c1C(=O)SCC` [Compound 55, 5-Ethyl 2-propyl-4-ethyl-3-(ethylsulfanylcarbonyl)-6-phenylpyridine-5-carboxylate], the Ki at A2A adenosine receptors [2] (Table 2, compounds 33-58) came to 2820 ± 820 nM; on A1 adenosine receptors, 16700 ± 3000 nM; on human A3 receptors (Table 2, compounds 33-58) it was 33.3 ± 10.7 nM; at rat A3 receptors, 590 ± 40 nM. For the same compound, at human A3 receptors (Table 2), the rA1/hA3 was found to be 500. Also, at rat A3 receptors, the rA3/hA3 is listed as 18. Moreover, the rA1/rA3 at rat A3 receptors was 28.
In the case of `CCOC(=O)C1=C(C)NC(c2ccccc2)=C(C(=O)OCc2ccccc2)C1C#Cc1ccccc1` (stereo not shown) [Compound 69], the “rA2A displacement” value at A2A adenosine receptors [1] (at 10^−4 M, compound 69, value taken from the literature) is “d (10^−4) (Displacement of < 10% of specific binding at the indicated concentration (M).)”.
For the compound `CCOC(=O)c1c(C2CCCC2)nc(CC)c(C(=O)SCC)c1CC` [Compound 52, 5-Ethyl 2,4-diethyl-3-(ethylsulfanylcarbonyl)-6-cyclopentylpyridine-5-carboxylate], the Ki at A2A adenosine receptors [2] (Table 2, compounds 33-58) was 26100 ± 6200 nM; on A1 adenosine receptors, 55300 ± 14700 nM; at human A3 receptors (Table 2, compounds 33-58), 4010 ± 2490 nM; at rat A3 receptors, 2800 ± 220 nM. Also, at human A3 receptors (Table 2), the rA1/hA3 is reported as 14. For the same compound, the rA3/hA3 at rat A3 receptors was determined as 0.83. Moreover, the rA1/rA3 on rat A3 receptors is above 20.
`CCOC(=O)C1=C(c2ccccc2)NC(CC)=C(C(=O)SCC)C1CC` (racemic) [Compound 75, 5-Ethyl 2,4-diethyl-6-phenyl-3-(ethylsulfanylcarbonyl)-1,4-(±)-dihydropyridine-5-carboxylate]: the Ki at A2A adenosine receptors [2] (Table 3) was 29100 ± 9900 nM. At A1 adenosine receptors (Table 3, at 10^−4 M, read-out: rA1 % inhibition (percentage of specific binding displaced)), the inhibition (in general, how much of the control response was suppressed) at 100 µM came out at 34 ± 7%. Also, on human A3 receptors (Table 3), the Ki was 907 ± 44 nM and the rA1/hA3 is recorded as above 50. Moreover, on rat A3 receptors, the Ki amounted to 2520 ± 880 nM, the rA3/hA3 came out at 2.8 and the rA1/rA3 is given as above 30.
